Experimental data published in patent US20250177366A1, “COMPOSITIONS AND METHODS FOR ALLEVIATING PAIN AND REDUCING ADVERSIVENESS OF STIMULI” (UNIVERSITY OF WASHINGTON, priority 2021, published 2025).

Assays:
larval zebrafish = assay: Sensitized thermal aversion assay (28.5° vs 31.5° C. after AITC), small molecule screen; format: in vivo, Zebrafish (Danio rerio); settings: 10 min incubation then AITC 0.5 μM
Text: The Novel Analgesic AS1 reverses the valence of normally aversive stimuli. In a previously published study, a novel high throughput temperature discrimination assay utilizing larval zebrafish that modeled acute and sensitized temperature aversion were developed (FIG. 1A) (Curtright et al., PLoS One. 2015; 10:1-18). […] Also shown is that multiple small molecule analgesics could reverse acute and/or sensitized thermal aversion while non-analgesics could not.
Using the sensitized thermal aversion assay, a small molecule library was screened in order to identify targets in pain transduction pathways and potential entry points for therapeutic intervention. The compounds were selected from Chembridge's CNS-Set (https://www.chembridge.com), which consists of small molecules selected for blood brain barrier penetration and oral bioavailability. Compounds were selected from across the library to maximize the diversity of molecules screened. Small molecules were initially pooled (8 per pool) to maximize screening efficiency. […]
Thermal preference assay. […] Locomotor behavior was recorded using a Canon high-definition video camcorder suspended at a fixed position above the choice testing plate. […]

trigeminal neurons = assay: CaMPARI neuronal activity assay; format: in vivo, Zebrafish (Danio rerio); settings: 5 μM AS1; 28.5° C. or 37.5° C.
Text: Brain regions associated with dopaminergic circuitry are specifically activated in the concurrent presence of AS1 and noxious stimuli. It was next sought to determine in an unbiased manner where in the zebrafish nervous system AS1 was exerting its effects by examining neuronal activity in the context of noxious stimuli. […] Many analgesics can act upon multiple different levels of pain transduction circuitry. For example, MORs can be found upon peripheral somatosensory neurons, spinal cord neurons, and numerous neuronal populations in the brain, and both exogenous and endogenous opioids can modulate the activity of any of these neurons (Corder et al., Annu. Rev. Neurosci. 2018; 41: 453-473). To investigate whether peripheral somatosensory neurons were also influenced by AS1, a neuronal activity assay upon transgenic zebrafish expressing the genetically-encoded calcium indicator CaMPARI in all neurons was performed. This fluorescent protein permanently photoconverts from green to red in the presence of a 405 nm light and high calcium (a proxy for neuronal activity), allowing “snapshots” of neuronal activity at a single time point (Fosque et al., Science. 2015; 347(6223):755-760). Fish were exposed to conditions of 28.5° C. or 37.5° C. with or without AS1 in the presence of a blue light, and then the trigeminal ganglia (TG) were surveyed for photoconverted neurons. […]

CC(C)c1ccc(C(=O)Nc2ccncc2)cc1 [AS1, 4-propan-2-yl-N-pyridin-4-ylbenzamide]
sensitized thermal aversion / place preference (larval zebrafish): induced place preference for the noxious zone
Number of photoconverted trigeminal neurons, AS1-treated vs control (trigeminal neurons): No significant difference
